These results are taken from US10870635B2, “Compounds and their use as BACE1 inhibitors” (ALLGENESIS BIOTHERAPEUTICS, INC., priority 2015, dated 2020).

The term IC50 denotes the point on the concentration scale where inhibition reaches its midpoint.

The target of one experiment is recombinant BACE2 (Homo sapiens (Human), UniProt Q9Y5Z0). Kind of experiment: AnaSpec BACE2 fluorescent assay. The experiment is classed as biochemical. The method, then:
A BACE2 activity assay kit from AnaSpec (Fremont, Calif.) was used to determine the potency of the selected compounds by AnaSpec BACE2 fluorescent assay. To each well of a black 96-well micro plate, 50 μl of the β-secretase substrate (Hylite Fluor 488) diluted 1:100 using assay buffer was first added.
The compounds were serially diluted (1:2) into DMSO from their 10 mM stock concentrations in DMSO. The serially diluted inhibitors were diluted 1:100 into 1× assay buffer in a 96-well polypropylene plate (assay dilution plate). The final concentration of these compounds tested was 300 nM, 150 nM, 75 nM, 37.5 nM, 18.75 nM, 9.375 nM, 4.688 nM, 2.344 nM, 1.172 nM, 0.586 nM, and 0.293 nM.
A volume of 10 μl of the inhibitor from the assay dilution plate, a control inhibitor LY2886721 or inhibitor vehicle was then added to each well of the black 96-well micro plate.
The recombinant BACE2 was diluted in an assay buffer and the final BACE2 was 10.6 nM. The enzyme was added in a volume of 40 μl to each well of a black 96-well micro plate.
The reagents were mixed gently and the assay plate was placed into a POLARstar fluorescent plate reader with excitation wavelength set at 485 nm and the emission wavelength set at 520 nm. The plate reader was set to take readings every 5 minutes for up to 30 minutes or a 30 minute endpoint reading was used.
An appropriate integrated first-order rate equation was used to fit the data accumulated over a 30-40 minute collection period. Dose responses for inhibitors were run in duplicate.

Experiment [1] deals with pepsin (activated recombinant human pepsinogen A) (Homo sapiens (Human), UniProt P0DJD9). The experiment can be described thus: Pepsin activity assay. The experiment is classed as biochemical.
Chain of pepsin (activated recombinant human pepsinogen A) (P0DJD9 63-388): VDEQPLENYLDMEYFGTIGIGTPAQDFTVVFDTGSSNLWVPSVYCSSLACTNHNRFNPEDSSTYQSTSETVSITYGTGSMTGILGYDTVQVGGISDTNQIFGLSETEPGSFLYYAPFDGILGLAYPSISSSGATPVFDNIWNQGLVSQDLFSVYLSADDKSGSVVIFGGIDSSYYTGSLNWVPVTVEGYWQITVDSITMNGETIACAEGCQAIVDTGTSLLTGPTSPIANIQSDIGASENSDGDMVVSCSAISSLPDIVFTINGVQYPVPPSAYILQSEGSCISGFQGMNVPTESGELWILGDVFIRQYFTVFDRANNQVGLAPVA
Procedure: 30 mM stocks of the experimental inhibitor compounds were prepared in DMSO. A 10 mM concentration of the inhibitor was prepared by diluting the 30 mM stock 3-fold in DMSO (30 μl of the [30 mM]:60 μl DMSO). 10-fold serial dilutions of 10 mM and 30 mM stocks were made on a dilution plate..
The pepstatin A inhibitor was received from Tocris Bioscience as 10 mg of lyophilized powder. DMSO was used to reconstitute the powder to a 10 mM concentration, which was aliquoted and stored at −20° C. A 40 μl volume of the 10 mM stock was thawed before use. 10-fold serial dilutions of 10 mM and 3 mM stocks were made in DMSO on a dilution plate.
Using a multichannel pipette, take a 2 μl volume of the diluted samples from the dilution plate into a new polypropylene 96-well plate. […]
After the enzyme addition, the substrate was added to each well in 50 μl volumes. […] The plate was immediately sealed and placed on a shaker set to 350 rpm for approximately 30 sec prior to reading in the Polar Star plate reader at room temperature with the excitation wavelength set at 320 nm, the emission wavelength set at 405 nm. Readings were taken every 41 seconds for approximately 25 minutes.
The selected BACE1 inhibitors in accordance with examples of the invention were then determined for Pepsin activity and target selectivity ratio (Pepsin IC50/BACE1 IC50).
The target of experiment [2] is BACE1 (recombinant β-secretase enzyme) (Homo sapiens (Human), UniProt P56817). The experiment can be described thus: AnaSpec BACE1 fluorescent assay (beta-secretase activity assay). It counts as biochemical. The method, then: A BACE1 activity assay kit from AnaSpec (Fremont, Calif.) was used to determine the potency of the selected BACE1 inhibitors by AnaSpec BACE1 fluorescent assay. The recombinant β-secretase enzyme was diluted 1:200 in 1× assay buffer (1 part of 1× assay buffer and 1 part of TBS containing 0.1% Tween 20). The enzyme was added in a volume of 40 μl to each well of a black 96-well micro plate.
Chain of BACE1 (recombinant β-secretase enzyme) (P56817 46-501): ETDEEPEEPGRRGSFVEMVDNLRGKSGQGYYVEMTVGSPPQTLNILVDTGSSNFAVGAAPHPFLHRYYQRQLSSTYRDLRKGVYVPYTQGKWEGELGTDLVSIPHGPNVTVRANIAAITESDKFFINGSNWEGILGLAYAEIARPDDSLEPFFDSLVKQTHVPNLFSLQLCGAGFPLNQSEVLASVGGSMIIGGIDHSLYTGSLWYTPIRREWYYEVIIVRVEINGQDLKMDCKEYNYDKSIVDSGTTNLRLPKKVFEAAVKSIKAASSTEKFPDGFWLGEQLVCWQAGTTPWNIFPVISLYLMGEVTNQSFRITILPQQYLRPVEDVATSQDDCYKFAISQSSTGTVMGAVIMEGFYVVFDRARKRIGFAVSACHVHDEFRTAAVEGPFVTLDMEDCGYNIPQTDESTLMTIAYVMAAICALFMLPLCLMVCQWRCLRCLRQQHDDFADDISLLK
The BACE1 inhibitors were serially diluted into DMSO from their 10 mM stock concentrations in DMSO. The serially diluted inhibitors were diluted 1:100 into 1× assay buffer in a 96-well polypropylene plate (assay dilution plate). The final concentration of the BACE1 inhibitor tested was 300 nM, 100 nM, 30 nM, 10 nM, 3 nM, 1 nM 0.3 nM, and 0.00 nM. Dose responses for inhibitors were run in duplicate.
A volume of 10 μl of the inhibitor from the assay dilution plate, a control inhibitor LY2886721 or inhibitor vehicle was then added to each well of the black 96-well micro plate containing BACE1.
To each well of the black 96-well micro plate, 50 μl of the β-secretase substrate (Hylite Fluor 488) diluted 1:100 using assay buffer was added. The reagents were mixed gently and the assay plate was placed into a POLARstar fluorescent plate reader with excitation wavelength set at 485 nm and the emission wavelength set at 520 nm. The plate reader was set to take readings every 5 minutes for up to 30 minutes or a 30 minute endpoint reading was used.
An appropriate integrated first-order rate equation was used to fit the data accumulated over a 30-40 minute collection period.

The target of experiment [3] is Human recombinant cathepsin D (Homo sapiens (Human), UniProt P07339). Kind of experiment: Cathepsin D activity assay. The experiment is classed as biochemical. Particulars: read-out: CatD IC50.
Chain of Human recombinant cathepsin D (P07339 65-412): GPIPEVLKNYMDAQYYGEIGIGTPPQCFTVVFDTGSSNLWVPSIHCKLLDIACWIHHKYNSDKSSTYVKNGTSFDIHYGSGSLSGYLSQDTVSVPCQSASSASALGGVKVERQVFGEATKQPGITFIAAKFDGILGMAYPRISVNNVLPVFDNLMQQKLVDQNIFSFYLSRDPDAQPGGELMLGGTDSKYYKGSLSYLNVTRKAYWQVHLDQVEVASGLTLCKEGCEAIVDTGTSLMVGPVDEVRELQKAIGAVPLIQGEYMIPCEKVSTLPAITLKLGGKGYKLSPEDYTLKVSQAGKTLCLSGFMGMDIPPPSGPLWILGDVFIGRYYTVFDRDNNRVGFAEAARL
Procedure: The development of a CatD activity assay is used to determine any potential cross reactivity for compounds selected from the β-secretase activity assay and to determine the selectivity to BACE1 inhibition. The CatD activity is reported for assessing target selectivity ratio (CatD IC50/BACE1 IC50).
The reagents for the cathepsin D assay were prepared as follows.
Human recombinant cathepsin D stored frozen in 2.0 μl aliquots was thawed and 42 μl of enzyme buffer (0.1M NaOAC, 0.2 M NaCl, pH 3.5) was added and incubated at 37° C. for 30 minutes. After 30 minutes the enzyme was further diluted to a final volume of 4.4 ml in enzyme buffer containing 5.0 mM DTT for immediate use in the cathepsin D assay.
The 7-methoxycoumarin-labeled peptide substrate (ES010) for cathepsin D was supplied as a 6.2 mM stock in DMSO. For use in the cathepsin D assay, the 6.2 mM stock was diluted to a 1.55 mM stock with DMSO. The 1.55 mM peptide stock in DMSO was further diluted 1:100 in reaction buffer (0.1M NaOAC, 0.2M NaCl, 0.1% Tween 20, 5.0 mM DTT, pH3.5) to create a 15.5 μM stock for use in the assay.
DMSO without compound served as a DMSO vehicle control for the cathepsin D assay. For each test compound, 30 μl of each dilution was pipetted into a separate well of a 96-well polypropylene plate. This polypropylene plate was labeled as the DMSO dilution plate and a plate map of test compound locations was made.
Test compounds from the DMSO dilution plate require a 1:100 dilution into reaction buffer before they can be added to the cathepsin D assay plate. To accomplish the 1:100 dilution of test compounds, 2.0 μl of each test compound at each concentration was pipetted from the DMSO dilution plate (using a multi-channel pipette calibrated to accurately dispense a 2.0 μl volume) into a new 96-well polypropylene plate using the plate map created for the DMSO dilution plate. This 96-well plate served as the inhibitor dilution plate. Next, 198 μl of reaction buffer was pipetted into each well of the inhibitor dilution plate (using a multi-channel pipette calibrated for accurate delivery of a 198 μl volume) and the pipetted test compound mixed by gentle up and down pipetting.
A1.0 mM stock of pepstatin A was made in DMSO and aliquotted into 5.0 μl samples for freezing and storage at −20° C. Upon thawing, 45 μl of DMSO (1:10 dilution) was added to create a 100 μM stock of pepstatin A in DMSO. The 100 μM Pepstatin A stock was further diluted 1:10 with DMSO to create a 10 μM stock in DMSO. […]
The assay plate was placed into a fluorescent plate reader with the excitation wavelength set at 320 nm and the emission wavelength set at 405 nm. Readings were collected every minute over a 30 minute collection period.
The subject of experiment [4] is Aβ38, Aβ40 and Aβ42 in CSF. Kind of experiment: Efficacy study in monkeys: Aβ biomarkers in CSF after single oral administration. Particulars: Monkey CSF. It counts as in vivo, cynomolgus monkeys. An excerpt:
Certain isoforms of amyloid β peptide (AR), such as Aβ338, Aβ340 and Aβ342 have been established as relevant biomarkers that reflect BACE1 activity and have been exploited to establish translational relationships between different cellular assays and animal models. In this efficacy study, mammals were used to assess amyloid β reduction with BACE1 inhibitors. In a clinical setting, plasma and cerebrospinal fluid (CSF) are the accessible compartments to measure soluble amyloid β levels to determine target profile. It is important to analyze plasma and CSF levels which relate to changes in brain amyloid β levels. The concentration of BACE1 inhibitors and their time-dependent reduction of plasma, CSF and brain amyloid β levels were investigated following intravenous and oral administrations of BACE1 inhibitors.
a (ii). Formulation for PO administration: 5% (v/v) PEG400+95% (v/v) of 1% (w/v) methyl cellulose in water (the viscosity of methyl cellulose is 20 g/L, 20° C., cPa·s: 350.0-550.0). The test article solutions were prepared by dissolving the compound in PEG400 followed by the addition of the aqueous solution to the final volume.
For the oral formulation of a BACE1 inhibitor in the monkey efficacy study (at the dose of 20 mg/kg with the concentration of 2 mg/ml)
1) Weighed […] of the selected BACE1 inhibitors into a clean vial;
2) Added 2.826 mL of PEG400 into the tube containing the compound. Then vortexed for 5 min and sonicated for 45 min;
3) Added 53.688 mL of 1% MC in water into the tube containing the compound. Then vortexed for 4 min and sonicated for 4 min; and
4) Adjusted the pH to the physiological value by using 1N NaOH.
Several studies have shown that drug transport into the CNS may be more similar between humans and primates. […] To explore the mechanism of BACE1 compounds, the compounds were tested using this in vivo study. […] The monkey Aβ reduction study usually takes 3 weeks.
The time-course profiles of neurodegeneration biomarkers were determined following single oral administration of the selected BACE1 inhibitors to male cynomolgus monkeys. Blood samples were collected from all animals via the saphenous vein or cephalic vein at 0 (pre-dose), 0.5, 1, 3, 6, 8, 12 and 24 hr post-dose into test tubes containing potassium ethylenediaminotetraacetic acid (K2EDTA). CSF samples were collected via a pre-implanted cannula at the foramina occipital magnum site at 0 (pre-dose), 3, 6, 12 and 24 hr post-dose.
Plasma was separated from the blood by centrifugation at 4° C. and stored at −80° C. until analyzing. The biomarkers of Aβ38, Aβ40 and Aβ42 in CSF were quantified using Meso Scale Discovery (MSD) multiplex electrochemiluminescence immunoassay according to the manufacturer's instructions. The plates were first blocked with 150 μL of Diluent 35 for 1 hour at room temperature with constant shaking at 600 rpm. After washing three times with 200 μL washing buffer, 25 μL of 1× detection antibody solution, plus Aβ40 blocker, 25 μL of seven standards, zero standard and four-fold diluted samples were added to the assay plate. The plate was incubated for 2 hours at room temperature, with constant shaking at 600 rpm. Upon finishing, the plate was washed three times with washing buffer and read in a Sector Imager 6000 (MSD) immediately after addition of 150 μL of 2× Read Buffer T. Aβ concentrations were calculated with reference to the standard curves of each individual peptide and expressed as pg/mL using SoftMax Pro GXP 5.4.4.

Chain of recombinant BACE2 (Q9Y5Z0 63-518): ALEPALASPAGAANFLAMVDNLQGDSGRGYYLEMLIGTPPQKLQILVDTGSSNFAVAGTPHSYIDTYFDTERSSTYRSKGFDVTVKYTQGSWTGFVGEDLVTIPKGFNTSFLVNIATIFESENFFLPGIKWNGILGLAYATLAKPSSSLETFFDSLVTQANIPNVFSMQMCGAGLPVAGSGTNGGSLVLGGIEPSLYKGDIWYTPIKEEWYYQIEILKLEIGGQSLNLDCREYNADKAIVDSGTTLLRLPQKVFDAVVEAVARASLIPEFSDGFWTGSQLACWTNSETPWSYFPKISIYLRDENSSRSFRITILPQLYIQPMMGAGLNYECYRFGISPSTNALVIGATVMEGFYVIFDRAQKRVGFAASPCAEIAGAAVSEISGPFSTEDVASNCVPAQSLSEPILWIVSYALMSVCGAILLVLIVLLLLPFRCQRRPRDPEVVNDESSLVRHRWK

Regarding `CC#Cc1ccc2sc3ccc([C@]4(C)CS(=O)(=O)C(C)(C)C(N)=N4)cc3c2c1` [Example 103, (R)-5-Amino-3,6,6-trimethyl-3-(8-(prop-1-yn-1-yl)dibenzo[b,d]thiophen-2-yl)-3,6-dihydro-2H-1,4-thiazine 1,1-dioxide], the concentration for half-maximal inhibition (IC50) amounted to 0.012 µM on recombinant BACE2, 3.14 µM in experiment [1], 0.039 µM in experiment [2] and 17.2 µM in experiment [3]. Also, the “% of maximum Aβ40 inhibition over 24 hours” value in experiment [4] turned out to be 45.9%.

For `CC#Cc1ccc2sc3cc(F)c([C@]4(C)CS(=O)(=O)C(C)(C)C(=N)N4)cc3c2c1` [Example 109, (R)-5-Amino-3-(3-fluoro-8-(prop-1-yn-1-yl)dibenzo[b,d]thiophen-2-yl)-3,6,6-trim ethyl-3,6-dihydro-2H-1,4-thiazine 1,1-dioxide], the IC50 is 0.016 µM on recombinant BACE2, 4.38 µM in experiment [1], 0.025 µM in experiment [2] and 10.8 µM in experiment [3]. Also, in experiment [4], the “% of maximum Aβ40 inhibition over 24 hours” value was 37.3%.
